{"source": "patent US7879347B2", "about": "“Dihydroxyphenyl compounds and glucoside compounds thereof” (KAO Corporation, priority 2001, dated 2011)", "key": {"[1]": {"test_system": "Free fatty cells from epididymis fatty tissues", "test": "Determination of lypolytic activity in free fatty cells", "format": "cell-based, Wister male rats", "conditions": "for degree of lypolysis promotion (%): 100 μg/ml test compound, 0.05 μg/ml norepinephrine, 37° C., 1 hour, fatty acids relative to control solution without compound (=100)", "procedure": "The cells were added to a Hank's balanced solution containing 0.05 μg/ml of bovine serum albumin, 0.05 μg/ml of norepinephrine and 100 μg/ml of the present compound to be tested, and then allowed to react at 37° C. for 1 hour. Liberated fatty acids were extracted and quantitated with a copper reagent and a color developing reagent. Lypolytic activity was calculated according to the following equation. Lypolytic activity(%)=[A/B]×100, wherein A: amount of fatty acids in a sample solution, and B: that in a control solution without present compound. Subcutaneous Fat Decomposition Test"}, "[2]": {"test": "Anti-oxidation test (UV-induced peroxide formation)", "design": "unit not given here", "conditions": "0.005 g compound in 1 ml methyl linolate", "description": "Comparative test on raspberry ketone was made in the same manner as above."}, "B16 melanoma cells": {"test_system": "B16 melanoma cells", "test": "Melanogenesis inhibition test", "format": "cell-based", "conditions": "72 hours; for Amount of melanin per cell (%): Theophylline containing medium, relative to blank", "procedure": "B16 melanoma cells were inoculated in a 12 wells-plastic plate at a concentration of 2×10^4/well on MEM (Minimum Essential Medium). After 24 hours, the medium was changed to a Theophylline containing medium to which 4-(3′,4′-dihydroxyphenyl)-butane-2-one was added in the concentrations shown in Table 6. The cells were cultured for 72 hours and then treated with 10% TCA and ethanol/diethylether(=1/1). After counting the number of the cells, the cells were dissolved in an aqueous 1 mol/l sodium hydroxide solution containing dimethylsulfoxide in a concentration of 10%. Optical density at 475 nm (OD475) of the solution thus obtained was measured."}}, "data": [{"smiles": "CC(=O)CCc1ccc(O)c(O)c1", "note": "[4-(3′,4′-dihydroxyphenyl)-butane-2-one]", "values": [{"measurement": "degree of lypolysis promotion (%)", "setting": "[1]", "value": "194.3 +/− 12.4%"}, {"measurement": "lypolytic activity compared with raspberry ketone of Comparative Example 1", "setting": "[1]; comparison in words", "value": "significantly higher"}, {"measurement": "amount of peroxides formed by oxidation of methyl linolate", "setting": "[2]; UVB 10 (J/cm^2)", "value": 1.6}, {"measurement": "amount of peroxides formed by oxidation of methyl linolate", "setting": "[2]; UVB 30 (J/cm^2)", "value": 3.7}, {"measurement": "Amount of melanin per cell (%)", "setting": "B16 melanoma cells; concentration 1 μg/l", "value": 94.7, "unit": "%"}, {"measurement": "Amount of melanin per cell (%)", "setting": "B16 melanoma cells; concentration 3 μg/l", "value": 77.2, "unit": "%"}, {"measurement": "Amount of melanin per cell (%)", "setting": "B16 melanoma cells; concentration 10 μg/l", "value": 62.7, "unit": "%"}, {"measurement": "Amount of melanin per cell (%)", "setting": "B16 melanoma cells; concentration 30 μg/l", "value": 2.2, "unit": "%"}, {"measurement": "numbers of the cells", "setting": "B16 melanoma cells; concentration range of Table 6 (up to 30 μg/l)", "value": "no difference"}]}, {"smiles": "CC(=O)CCc1ccc(O)cc1", "note": "[Raspberry ketone, reference compound]", "values": [{"measurement": "degree of lypolysis promotion (%)", "setting": "[1]", "value": "142.0 +/− 6.8%"}, {"measurement": "amount of peroxides formed by oxidation of methyl linolate", "setting": "[2]; UVB 10 (J/cm^2)", "value": 30.2}, {"measurement": "amount of peroxides formed by oxidation of methyl linolate", "setting": "[2]; UVB 30 (J/cm^2)", "value": 42.5}]}]}
